The text below walks through data of US7744909B2, “Dispersions for the formulation of slightly or poorly soluble agents” (Abbott GmbH & Co., KG, priority 2000, dated 2010).

Values after ≈ are worked out from the molar mass of the structure shown.

Series [1] in a line: Additive solubility in oil and water phase versus quantity dissolved in the emulsion. In kind it is physicochemical. How it is done:
Preferably, the quantity of active ingredient dissolved is greater than the additive quantity by a factor of 2, more preferably 5, still more preferably 10 or even greater. The “additive quantity” is determined by dissolving the maximum possible quantity of active ingredient in the separate oily and aqueous phases (dissolving conditions being otherwise identical) corresponding to the constituents in the dispersion (saturation concentration), no further additional organic solvents being used. The dispersion according to the invention contains, in addition to the additive quantity, a superadditive quantity of dissolved active ingredient.
40 g emulsion from Example 1 consist 20% of oil (8 g) and ca. 80% of water (32 g). Thus on the basis of these solubilities, 8×0.0001 mg/ml plus 32×0.01 mg/ml, i.e. in total 0.3208 mg Amphotericin can be dissolved in 40 g emulsion components oil and water (i.e. approx. 0.008 mg/ml emulsion). In the present emulsion according to the invention 0.2 mg/ml emulsion could be incorporated (Example 1) without microscopic crystals of undissolved drug being detectable (Example 12).
Dissolved active ingredient is rapidly available. […] The solubility in water and oil phase amounts to, for example, 0.008 mg/ml in the case of Amphotericin B, the emulsion according to the invention dissolves without detectable crystals e.g. 0.2 mg/ml (Example 1). If 5 mg/ml dispersion is incorporated, the solubility is exceeded (supersaturated system).
(§1) The dispersions contains the active ingredient dissolved in an amount, which is greater than that amount which is the result of the mathematical addition of its maximal solubility in each of the water phase and the oil phase of the emulsion, which “addition amount” is determined under standard conditions (20° C., standard pressure) by dissolving the maximal amount of active ingredient in the separate oil and aqueous phases (maintaining the other dissolution conditions identical) corresponding to the proportions in the dispersion (saturation concentrations).

The conditions of series [2]: oral administration; cited from earlier work.
Series [3] is described as follows: Solubility of Amphotericin B in water. It is filed as physicochemical. The conditions noted are these: for solubility: water. How it is done:
Thus the solubility of Amphotericin B in water is less than 0.001% (<0.01 mg/ml) at pH 6-7, i.e. the pH value of the emulsion. It is true that the solubility of Amphotericin is higher with pH 2 and pH 11 (0.1 mg/ml), however these solutions cannot be administered intravenously.
as §1

Series [4] can be described thus: Solubility of Amphotericin in standard oils (soya oil, Miglyol 812). In kind it is physicochemical. The conditions noted are these: oil or lipid. The procedure:
The solubility of Amphotericin in soya oil (Long-chain Triglycerides—LCT) and in Miglyol 812 (Medium-chain Triglycerides—MCT), the standard oils for most commercially available emulsions for parenteral infusion is less than 0.0001 mg/ml.
as §1

One may read the solubility as the dissolved amount per volume that the medium holds. As to `C[C@@H]1[C@H](O)[C@@H](C)/C=C/C=C/C=C/C=C/C=C/C=C/C=C/[C@H](O[C@@H]2O[C@H](C)[C@@H](O)[C@H](N)[C@@H]2O)C[C@@H]2O[C@](O)(C[C@@H](O)C[C@@H](O)[C@H](O)CC[C@@H](O)C[C@@H](O)CC(=O)O[C@H]1C)C[C@H](O)[C@H]2C(=O)O` [Amphotericin B], in series [1] (8 g oil plus 32 g water, calculated from the separate solubilities), the “quantity that can be dissolved in 40 g emulsion components oil and water” value is 0.3208 mg. For the same molecule, the solubility in series [1] (20 °C, oil or lipid, per ml emulsion, calculated from the separate solubilities) is about 8 µg/mL (≈ 8.66 µM); in series [3] (pH 2, aqueous buffer, read-out: solubility), 100 µg/mL (≈ 108 µM); in series [3] (pH 11, aqueous buffer, read-out: solubility) it was 100 µg/mL (≈ 108 µM); in series [3] (pH 6-7, the pH value of the emulsion, read-out: solubility in water), under 10 µg/mL; in series [4] (Miglyol 812 (medium-chain triglycerides, MCT), read-out: solubility in Miglyol 812 (Medium-chain Triglycerides, MCT)), under 0.1 µg/mL; in series [4] (soya oil (long-chain triglycerides, LCT), read-out: solubility in soya oil (Long-chain Triglycerides, LCT)) it was under 0.1 µg/mL. For the same molecule, the “quantity dissolved in the emulsion without detectable crystals” value in series [1] (emulsion according to the invention (Example 1), Lipofundin N 20%) is 0.2 mg/mL. Moreover, the “solubility in water and oil phase (additive quantity)” value in series [1] (per ml emulsion, calculated from the separate solubilities) was 8 µg/mL (≈ 8.66 µM). Besides, in series [2], the bioavailability entry was “almost zero”. For the same molecule, the solubility in water entry in series [3] (pH 6-7, the pH value of the emulsion) is on record as “less than 0.001%”.
